Values after ≈ are worked out from the molar mass of the structure shown. Counter-ions that a name gives are not always drawn. Like-named read-outs stand apart in the source and are kept apart here.
Assays:
E. coli PBP3 = E. coli PBP3 (Escherichia coli (strain K12), UniProt P0AD68); test: E. coli PBP3 Bocillin-FL fluorescence polarization competition binding assay
How it was run: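 FP competition: 1.5 μM PBP, 0.1 μM Bocillin-FL, cpd 0–1000 μM; 50 mM Hepes pH 8.0/300 mM NaCl/5% glycerol. Read 490/520 nm immediately after Bocillin-FL addition, 60 min. EC50 = cpd conc. lowering probe binding.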

[1] = tested on: engineered strain of Escherichia coli harboring CTX-M15; test: microbe, parasite or virus in culture; assay type: cell-based; details: for MIC: Escherichia coli, read-out: Microbiological Activity (MIC in mg/L), E. coli DH5α/pLBII-CTX-M15, engineered strain producing CTX-M15
Experimental: (§1) Briefly, cryo-preserved bacterial cultures of challenge strains are streaked for isolation on appropriate agar medium, in this case Mueller Hinton II agar. Following incubation to allow growth of the colonies, plates are sealed with parafilm and stored refrigerated for up to two weeks. For preparation of assay inoculum and to ensure low variability, at least 5 colonies are picked from the agar plates with an inoculating loop and aseptically transferred to a culture tube containing 3 mL of Mueller-Hinton Broth (supplemented with divalent cations to required levels based on Manufacturers' certification). The broth culture is grown for 3-5 hours at 37° C. with shaking at 200 rpm. Meanwhile, 2-fold serial dilutions of test compounds are conducted in a 96 well plate with a final volume of 75 μL per well at 2-fold the final desired concentration. After the dilution plates are set up the growing cultures are then diluted in a cuvette containing MH II broth and the optical density is measured at 600 nm. The Inoculum is diluted such that 75 μL of this culture in Mueller-Hinton Broth results in a starting bacterial concentration of 5×10^5 CFU/mL when added to the dilution plates. The plates are incubated for 16-20 hours at 37° C. The MIC values are read visually as the lowest concentration well with no bacterial growth.
To determine if test compounds were affected by CTX-M15, the most abundant extended spectrum […] in clinical settings worldwide, the inhibition of the growth of an engineered strain of Escherichia coli harboring CTX-M15 was tested. This strain was constructed by cloning the gene encoding CTX-M15 into the NdeI and BamHI restriction endonuclease sites of plasmid pLBII, placing the gene(s) under the control of the Lac promoter. The constructed expression plasmid for CTX-M15 was used to transform competent E. coli DH5α cells to make the engineered strain, including an empty pLBII vector control strain. The classic cell based broth microdilution MIC assay was employed as described above with the addition of control antibiotics, known to be degraded by β-lactamases (Ceftazidime, piperacillin and piperacillin+tazobactam).

E. coli AG100 = test: Broth microdilution MIC, E. coli AG100 (wild-type parent); assay type: cell-based; details: Escherichia coli; wild-type parent E. coli AG100, broth microdilution; read-out: MIC E. coli AG100
Experimental: To determine the ability of test compounds to potentiate the inhibition of the growth of bacterial strains, classic cell based broth microdilution minimum inhibitory concentration (MIC) assays were employed.
as §1

E. coli ATCC 25922 = test: Broth microdilution MIC, E. coli ATCC 25922; assay type: cell-based; details: Escherichia coli, ATCC25922; E. coli ATCC 25922, broth microdilution; read-out: MIC E. coli 25922
Experimental: (§2) To determine the ability of test compounds to potentiate the inhibition of the growth of bacterial strains, classic cell based broth microdilution minimum inhibitory concentration (MIC) assays were employed. MIC assays are performed according to CLSI methods except where otherwise noted (CLSI, 2011 and CLSI, 2009). The reference type strain E. coli ATCC 25922, the wild-type parent strain E. coli AG100, the hyper-permeable E. coli 901C and E. coli D22 and the E. coli AG100A strain lacking the acrAB efflux pump encoding genes were used to determine the ability of the PBP inhibitors to penetrate the outer membrane of gram-negative bacteria and inhibit bacterial growth. […] The P. aeruginosa PAO1, P. aeruginosa ATCC 27853 and A. baumannii ATCC 19606, along with the hyper-permeable P. aeruginosa ATCC 35151 and an engineered efflux pump-compromised strain of P. aeruginosa (ΔmexAB-oprM) were used to determine the ability of PBP inhibitors to penetrate the outer membrane of P. aeruginosa and A. baumannii and assess antibacterial activity against these important gram-negative organisms.
as §1

K. pneumoniae UMM = test: microbe, parasite or virus in culture; assay type: cell-based; details: Klebsiella pneumoniae; K. pneumoniae UMM producing SHV-5 and KPC-2; read-out: MIC K. pneumoniae UMM
Experimental: as §2, §1

E. coli AG100A = test: microbe, parasite or virus in culture; assay type: cell-based; details: Escherichia coli, read-out: MIC E. coli AG100A
Experimental: as §2, §1

E. coli 901C = test: microbe, parasite or virus in culture; assay type: cell-based; details: Escherichia coli; hyper-permeable E. coli 901C, broth microdilution; read-out: MIC E. coli 901C
Experimental: as §2, §1

K. pneumoniae SI-117 = test: microbe, parasite or virus in culture; assay type: cell-based; details: Klebsiella pneumoniae, SI117, read-out: MIC K. pneumoniae SI-117
Experimental: as §2, §1

E. coli D22 = test: microbe, parasite or virus in culture; assay type: cell-based; details: Escherichia coli; hyper-permeable E. coli D22, broth microdilution; read-out: MIC E. coli D22
Experimental: as §2, §1

K. pneumoniae 848844 = test: microbe, parasite or virus in culture; assay type: cell-based, Klebsiella pneumoniae; details: Klebsiella pneumoniae; K. pneumoniae 848844 producing SHV-11 and KPC-2; read-out: MIC K. pneumoniae 848844
Experimental: as §2, §1

[2] = fluorescence polarization competition binding with Bocillin-FL, read-out: E. coli K12 PBP3 Potency

E. coli PBP3, sequence (P0AD68 whole entry): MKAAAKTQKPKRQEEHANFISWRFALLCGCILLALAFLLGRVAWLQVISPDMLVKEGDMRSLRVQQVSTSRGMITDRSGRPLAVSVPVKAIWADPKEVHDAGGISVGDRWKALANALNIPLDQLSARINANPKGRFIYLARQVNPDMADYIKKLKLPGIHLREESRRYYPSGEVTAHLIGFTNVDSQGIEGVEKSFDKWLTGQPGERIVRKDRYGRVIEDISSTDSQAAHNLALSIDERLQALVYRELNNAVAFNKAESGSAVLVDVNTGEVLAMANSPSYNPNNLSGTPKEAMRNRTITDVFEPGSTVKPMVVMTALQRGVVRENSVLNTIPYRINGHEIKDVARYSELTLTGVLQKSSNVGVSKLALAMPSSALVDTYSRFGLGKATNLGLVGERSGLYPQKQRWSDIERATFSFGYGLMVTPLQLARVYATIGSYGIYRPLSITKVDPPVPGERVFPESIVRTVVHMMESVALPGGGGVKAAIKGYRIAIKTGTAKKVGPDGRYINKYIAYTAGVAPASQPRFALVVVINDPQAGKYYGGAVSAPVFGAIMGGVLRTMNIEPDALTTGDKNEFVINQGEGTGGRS

SMILES: CCN1CCN(C(=O)NC(C(=O)N[C@H]2Cc3cccc(C(=O)O)c3OB2O)c2c(C)n[nH]c2C)C(=O)C1=O (stereo partly drawn) [Example 54, (3R)-3-(2-(3,5-dimethyl-1H-pyrazol-4-yl)-2-(4-ethyl-2,3-dioxopiperazine-1-carboxamido)acetamido)-2-hydroxy-3,4-dihydro-2H-benzo[e][1,2]oxaborinine-8-carboxylic acid, trifluoroacetic acid salt]
- EC50 (E. coli PBP3): 30 to 500 µM
- MIC [1]: 128 to 256 mg/L

SMILES: CCN1CCN(C(=O)NC(C(=O)N[C@H]2Cc3cccc(C(=O)O)c3OB2O)C2CCNC2)C(=O)C1=O (stereo partly drawn) [Example 55, (3R)-3-(2-(4-ethyl-2,3-dioxopiperazine-1-carboxamido)-2-(pyrrolidin-3-yl)acetamido)-2-hydroxy-3,4-dihydro-2H-benzo[e][1,2]oxaborinine-8-carboxylic acid, trifluoroacetic acid salt]
- EC50 (E. coli PBP3; [2]): > 500 µM
- MIC [1]: 128 to 256 mg/L

SMILES: CCN1CCN(C(=O)NC(C(=O)N[C@H]2Cc3cccc(C(=O)O)c3OB2O)C2CCN(CC(N)=O)C2)C(=O)C1=O (stereo partly drawn) [Example 57, (3R)-3-(2-(1-(2-amino-2-oxoethyl)pyrrolidin-3-yl)-2-(4-ethyl-2,3-dioxopiperazine-1-carboxamido)acetamido)-2-hydroxy-3,4-dihydro-2H-benzo[e][1,2]oxaborinine-8-carboxylic acid, trifluoroacetic acid salt]
- EC50 (E. coli PBP3; [2]): > 500 µM
- MIC [1]: 128 to 256 mg/L

SMILES: O=C(O)c1cccc2c1OB(O)[C@@H](NC(=O)C(NC(=O)c1c[nH]c3cccnc3c1=O)c1ccc(O)c(O)c1Cl)C2 (stereo partly drawn) [Example 59, (3R)-3-(2-(2-chloro-3,4-dihydroxyphenyl)-2-(4-oxo-1,4-dihydro-1,5-naphthyridine-3-carboxamido)acetamido)-2-hydroxy-3,4-dihydro-2H-benzo[e][1,2]oxaborinine-8-carboxylic acid]
- MIC [1]: 128 to 256 mg/L (≈ 221 to 442 µM)

SMILES: CCN1CCN(C(=O)NC(C(=O)N[C@H]2Cc3cccc(C(=O)O)c3OB2O)c2ccc(N3CCOCC3)cc2)C(=O)C1=O (stereo partly drawn) [Example 61, (3R)-3-(2-(4-ethyl-2,3-dioxopiperazine-1-carboxamido)-2-(4-morpholinophenyl)acetamido)-2-hydroxy-3,4-dihydro-2H-benzo[e][1,2]oxaborinine-8-carboxylic acid]
- MIC [1]: 128 to 256 mg/L (≈ 216 to 431 µM)

SMILES: CCN1CCN(C(=O)N[C@@H](C(=O)N[C@H]2Cc3cccc(C(=O)O)c3OB2O)C2(CO)CC2)C(=O)C1=O [Example 62, (R)-3-((R)-2-(4-ethyl-2,3-dioxopiperazine-1-carboxamido)-2-(1-(hydroxymethyl)cyclopropyl)acetamido)-2-hydroxy-3,4-dihydro-2H-benzo[e][1,2]oxaborinine-8-carboxylic acid]
- MIC [1]: 32 to 64 mg/L (≈ 63.7 to 127 µM)

SMILES: CCN1CCN(C(=O)N[C@@H](C(=O)N[C@H]2Cc3cccc(C(=O)O)c3OB2O)[C@@H](C)OCC(N)=O)C(=O)C1=O [Example 66, (R)-3-((2R,3R)-3-(2-amino-2-oxoethoxy)-2-(4-ethyl-2,3-dioxopiperazine-1-carboxamido)butanamido)-2-hydroxy-3,4-dihydro-2H-benzo[e][1,2]oxaborinine-8-carboxylic acid]
- EC50 (E. coli PBP3): 30 to 500 µM
- MIC [1]: 32 to 64 mg/L (≈ 60 to 120 µM)

SMILES: CCN1CCN(C(=O)N[C@H](CNS(=O)(=O)C(F)(F)F)C(=O)N[C@H]2Cc3cccc(C(=O)O)c3OB2O)C(=O)C1=O [Example 75, (R)-3-((R)-2-(4-ethyl-2,3-dioxopiperazine-1-carboxamido)-3-((trifluoromethyl)sulfonamido)propanamido)-2-hydroxy-3,4-dihydro-2H-benzo[e][1,2]oxaborinine-8-carboxylic acid]
- EC50 (E. coli PBP3; [2]): > 500 µM
- MIC [1]: 128 to 256 mg/L (≈ 216 to 431 µM)

SMILES: CCN1CCN(C(=O)NC(C(=O)N[C@H]2Cc3cccc(C(=O)O)c3OB2O)C(CO)CNS(N)(=O)=O)C(=O)C1=O (stereo partly drawn) [Example 79, (3R)-3-(2-(4-ethyl-2,3-dioxopiperazine-1-carboxamido)-4-hydroxy-3-((sulfamoylamino)methyl)butanamido)-2-hydroxy-3,4-dihydro-2H-benzo[e][1,2]oxaborinine-8-carboxylic acid]
- MIC [1]: 32 to 64 mg/L (≈ 54.8 to 110 µM)

SMILES: CCN1CCN(C(=O)NC(C(=O)N[C@H]2Cc3cccc(C(=O)O)c3OB2O)C(CCl)CNS(N)(=O)=O)C(=O)C1=O (stereo partly drawn) [Example 80, (3R)-3-(4-chloro-2-(4-ethyl-2,3-dioxopiperazine-1-carboxamido)-3-((sulfamoylamino)methyl)butanamido)-2-hydroxy-3,4-dihydro-2H-benzo[e][1,2]oxaborinine-8-carboxylic acid]
- MIC [1]: 128 to 256 mg/L (≈ 212 to 425 µM)

SMILES: CCN1CCN(C(=O)N[C@H](CNS(C)(=O)=O)C(=O)N[C@H]2Cc3cccc(C(=O)O)c3OB2O)C(=O)C1=O [Example 83, (R)-3-((R)-2-(4-ethyl-2,3-dioxopiperazine-1-carboxamido)-3-(methylsulfonamido)propanamido)-2-hydroxy-3,4-dihydro-2H-benzo[e][1,2]oxaborinine-8-carboxylic acid]
- EC50 (E. coli PBP3; [2]): > 500 µM
- MIC [1]: 32 to 64 mg/L (≈ 59.3 to 119 µM)

SMILES: NCCN1CCN(C(=O)N[C@H](C(=O)N[C@H]2Cc3cccc(C(=O)O)c3OB2O)c2ccc(O)c(O)c2Cl)C(=O)C1=O [Example 221, (R)-3-((S)-2-(4-(2-aminoethyl)-2,3-dioxopiperazine-1-carboxamido)-2-(2-chloro-3,4-dihydroxyphenyl)acetamido)-2-hydroxy-3,4-dihydro-2H-benzo[e][1,2]oxaborinine-8-carboxylic acid]
- MIC (E. coli AG100): 8 to 16 µg/mL
- MIC (E. coli ATCC 25922): > 128 µg/mL
- MIC (K. pneumoniae UMM): 8 to 16 µg/mL
- MIC (E. coli AG100A): 8 to 16 µg/mL
- MIC (E. coli 901C): 8 to 16 µg/mL
- MIC (K. pneumoniae SI-117): 32 to 64 µg/mL
- MIC (E. coli D22): 8 to 16 µg/mL
- EC50 (E. coli PBP3): 30 to 500 µM
- MIC (K. pneumoniae 848844): 32 to 64 µg/mL

SMILES: NCCN1CCN(C(=O)N[C@H](C(=O)N[C@H]2Cc3cccc(C(=O)O)c3OB2O)c2ncc(O)cc2F)C(=O)C1=O [Example 226, (R)-3-((S)-2-(4-(2-aminoethyl)-2,3-dioxopiperazine-1-carboxamido)-2-(3-fluoro-5-hydroxypyridin-2-yl)acetamido)-2-hydroxy-3,4-dihydro-2H-benzo[e][1,2]oxaborinine-8-carboxylic acid]
- MIC (E. coli AG100): 32 to 64 µg/mL
- MIC (E. coli ATCC 25922): > 128 µg/mL
- MIC (K. pneumoniae UMM): 32 to 64 µg/mL
- MIC (E. coli AG100A): 8 to 16 µg/mL
- MIC (E. coli 901C): 2 to 4 µg/mL
- MIC (K. pneumoniae SI-117): > 128 µg/mL
- MIC (E. coli D22): 8 to 16 µg/mL
- EC50 (E. coli PBP3): 30 to 500 µM
- MIC (K. pneumoniae 848844): > 128 µg/mL

SMILES: CC(C)(O/N=C(\C(=O)N[C@@H]1C(=O)N2C(C(=O)[O-])=C(C[n+]3ccccc3)CS[C@H]12)c1csc(N)n1)C(=O)O [ceftazidime, reference compound]
- MIC in CTX-M15 producer compared with parent strain with empty pLBII plasmid ([1]; engineered E. coli DH5α with CTX-M15 vs empty vector control): weaker MICs in the CTX-M15 producer
- Microbiological Activity (MIC in mg/L), E. coli DH5α/pLBII-CTX-M15 ([1]; engineered strain producing CTX-M15): D (D represents an MIC from 8 to 16 μg/mL)

Source: US12173018B2, “Penicillin-binding protein inhibitors” (priority 2018, dated 2024)
